In patent EP2486923B1, “Histone deacetylase (HDAC) inhibiting compounds and method of making same” (Dr. Felix Jäger und Dr. Stefan Drinkuth Laborgemeinschaft …, priority 2011, dated 2012):
Read-outs that look alike come from different tables or passages of the source.

Columns and labels:
Assay in all cases: Two-step fluorescence assay for determination of IC50
Format in all cases: biochemical
HDAC7 = target: T1, HDAC7 (Homo sapiens, UniProt Q8WUI4)
T1 sequence (Q8WUI4 1-952): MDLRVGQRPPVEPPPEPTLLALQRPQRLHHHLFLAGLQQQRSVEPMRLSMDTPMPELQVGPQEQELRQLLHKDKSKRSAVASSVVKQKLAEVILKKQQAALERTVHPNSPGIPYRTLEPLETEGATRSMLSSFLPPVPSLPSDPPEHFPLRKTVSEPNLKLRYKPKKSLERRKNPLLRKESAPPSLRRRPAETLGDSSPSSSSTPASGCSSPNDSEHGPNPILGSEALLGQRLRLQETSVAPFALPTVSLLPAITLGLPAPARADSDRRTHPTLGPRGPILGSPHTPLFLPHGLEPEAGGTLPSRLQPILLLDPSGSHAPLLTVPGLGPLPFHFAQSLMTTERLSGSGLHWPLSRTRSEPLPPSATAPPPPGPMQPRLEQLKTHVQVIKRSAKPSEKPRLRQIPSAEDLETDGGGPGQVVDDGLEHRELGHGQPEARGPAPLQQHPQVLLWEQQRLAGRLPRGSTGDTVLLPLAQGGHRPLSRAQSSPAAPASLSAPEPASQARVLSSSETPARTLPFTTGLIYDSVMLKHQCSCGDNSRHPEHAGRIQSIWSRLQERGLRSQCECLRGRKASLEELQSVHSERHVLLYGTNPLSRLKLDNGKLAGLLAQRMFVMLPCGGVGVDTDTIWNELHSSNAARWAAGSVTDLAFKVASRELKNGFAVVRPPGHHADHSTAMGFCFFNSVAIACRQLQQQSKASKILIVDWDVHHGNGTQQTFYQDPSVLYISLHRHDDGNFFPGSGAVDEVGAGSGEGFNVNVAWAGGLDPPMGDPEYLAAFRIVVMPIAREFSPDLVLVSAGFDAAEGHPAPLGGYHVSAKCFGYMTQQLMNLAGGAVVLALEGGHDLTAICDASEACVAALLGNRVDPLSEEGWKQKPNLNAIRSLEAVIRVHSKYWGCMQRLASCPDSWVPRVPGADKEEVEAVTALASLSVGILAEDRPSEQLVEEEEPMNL
Experimental: (§1) In order to evaluate the inhibitory characteristics of example compounds of the invention, IC50 values were determined for such compounds. […] A two-step assay was used for this purpose.
(§2) To obtain the IC50 value for an individual compound/HDAC pair, a two-step assay can be performed based on a fluorescence signal. In principle, an ε-acetylated lysine substrate is deacetylated by histone-deacetylases in the first step. Trypsin releases detectable 7-amino-4-methylcoumarin (ex = excitation wavelength: 390 nm, em = emission wavelength: 460 nm) by cleaving the substrate at the deacetylated lysine in a subsequent reaction^[9]. The enzyme activity is inhibited by a suitable HDACi.
(§3) The obtained data are interpreted using a four parameter fit. Based on this fit, the IC50 value can be estimated. Analysis ot the data and calculation of the IC50 values was accomplished using a four-parameter logistic model protocol as previously described by Vølund^[16]. For nonlinear fits the Levenberg-Marquardt algorithm was applied^[17],[18]. […] Table 1: IC50 values in µM for synthesized compounds of the invention with a perfluorinated linker. […] HDAH = HDAC-like amidohydrolase

HDAC6 = target: T2, HDAC6 (Homo sapiens, UniProt Q9UBN7)
T2 sequence (Q9UBN7 1-1215): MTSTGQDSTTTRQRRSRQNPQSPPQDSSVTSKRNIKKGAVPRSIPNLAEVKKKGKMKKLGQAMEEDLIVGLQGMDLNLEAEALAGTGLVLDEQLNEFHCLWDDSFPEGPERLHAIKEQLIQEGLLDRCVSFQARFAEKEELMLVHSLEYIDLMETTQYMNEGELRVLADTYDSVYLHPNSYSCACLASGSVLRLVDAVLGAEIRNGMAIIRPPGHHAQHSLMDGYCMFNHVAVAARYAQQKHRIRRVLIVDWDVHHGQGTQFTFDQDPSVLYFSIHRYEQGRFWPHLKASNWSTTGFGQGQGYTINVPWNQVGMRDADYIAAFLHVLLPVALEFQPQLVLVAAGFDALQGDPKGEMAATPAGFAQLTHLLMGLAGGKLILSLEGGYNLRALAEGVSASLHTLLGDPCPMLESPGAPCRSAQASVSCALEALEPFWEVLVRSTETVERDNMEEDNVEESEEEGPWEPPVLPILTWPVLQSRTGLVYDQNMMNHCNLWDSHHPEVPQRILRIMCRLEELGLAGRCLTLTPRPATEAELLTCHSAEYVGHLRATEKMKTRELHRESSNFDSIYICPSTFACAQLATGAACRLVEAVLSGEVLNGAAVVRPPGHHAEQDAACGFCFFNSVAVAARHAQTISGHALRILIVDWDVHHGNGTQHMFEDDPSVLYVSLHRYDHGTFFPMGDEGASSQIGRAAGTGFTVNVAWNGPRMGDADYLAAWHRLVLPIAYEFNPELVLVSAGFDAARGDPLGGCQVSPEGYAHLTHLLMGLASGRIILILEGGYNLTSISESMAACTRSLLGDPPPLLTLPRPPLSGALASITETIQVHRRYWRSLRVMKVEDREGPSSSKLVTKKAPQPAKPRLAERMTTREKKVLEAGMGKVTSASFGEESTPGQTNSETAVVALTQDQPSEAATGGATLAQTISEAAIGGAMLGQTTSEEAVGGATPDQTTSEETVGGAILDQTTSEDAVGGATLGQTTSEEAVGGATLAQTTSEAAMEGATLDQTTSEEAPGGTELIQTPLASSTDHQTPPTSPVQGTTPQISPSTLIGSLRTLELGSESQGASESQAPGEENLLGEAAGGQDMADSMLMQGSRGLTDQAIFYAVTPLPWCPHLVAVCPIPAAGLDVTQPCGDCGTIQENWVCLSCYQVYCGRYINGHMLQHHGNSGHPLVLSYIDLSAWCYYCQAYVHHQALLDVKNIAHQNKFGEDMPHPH
Experimental: as §1, §2, §3

HDAH = target: T3, HDAH (Alcaligenes sp., UniProt Q70I53)
T3 sequence (Q70I53 1-369): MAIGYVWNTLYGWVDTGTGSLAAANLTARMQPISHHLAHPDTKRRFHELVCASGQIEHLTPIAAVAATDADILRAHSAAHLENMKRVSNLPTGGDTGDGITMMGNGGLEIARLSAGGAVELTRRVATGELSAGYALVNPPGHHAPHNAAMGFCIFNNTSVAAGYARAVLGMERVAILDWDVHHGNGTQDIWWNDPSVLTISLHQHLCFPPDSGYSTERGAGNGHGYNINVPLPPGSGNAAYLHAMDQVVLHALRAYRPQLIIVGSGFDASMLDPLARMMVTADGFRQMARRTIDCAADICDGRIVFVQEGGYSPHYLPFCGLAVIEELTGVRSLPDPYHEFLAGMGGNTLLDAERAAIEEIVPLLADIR
Experimental: as §1, §2, §3

HDAC1 = HDAC1 (Homo sapiens, UniProt Q13547)
Sequence of HDAC1 (Q13547 whole entry): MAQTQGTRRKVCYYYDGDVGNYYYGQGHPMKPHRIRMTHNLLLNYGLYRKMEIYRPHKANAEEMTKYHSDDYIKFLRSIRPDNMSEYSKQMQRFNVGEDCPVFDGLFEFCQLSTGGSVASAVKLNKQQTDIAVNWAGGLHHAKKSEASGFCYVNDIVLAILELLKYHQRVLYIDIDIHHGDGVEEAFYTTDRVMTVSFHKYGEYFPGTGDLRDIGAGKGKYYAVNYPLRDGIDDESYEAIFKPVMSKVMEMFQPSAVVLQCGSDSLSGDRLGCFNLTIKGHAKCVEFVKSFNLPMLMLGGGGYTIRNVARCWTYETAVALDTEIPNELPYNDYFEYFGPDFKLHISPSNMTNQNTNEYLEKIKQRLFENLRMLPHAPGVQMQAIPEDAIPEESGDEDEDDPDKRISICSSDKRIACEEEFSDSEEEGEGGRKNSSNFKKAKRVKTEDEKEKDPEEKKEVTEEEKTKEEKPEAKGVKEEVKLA
Experimental: as §1, §2, §3

HDAC8 = target: T4, HDAC8 (Homo sapiens, UniProt Q9BY41)
T4 sequence (Q9BY41 1-377): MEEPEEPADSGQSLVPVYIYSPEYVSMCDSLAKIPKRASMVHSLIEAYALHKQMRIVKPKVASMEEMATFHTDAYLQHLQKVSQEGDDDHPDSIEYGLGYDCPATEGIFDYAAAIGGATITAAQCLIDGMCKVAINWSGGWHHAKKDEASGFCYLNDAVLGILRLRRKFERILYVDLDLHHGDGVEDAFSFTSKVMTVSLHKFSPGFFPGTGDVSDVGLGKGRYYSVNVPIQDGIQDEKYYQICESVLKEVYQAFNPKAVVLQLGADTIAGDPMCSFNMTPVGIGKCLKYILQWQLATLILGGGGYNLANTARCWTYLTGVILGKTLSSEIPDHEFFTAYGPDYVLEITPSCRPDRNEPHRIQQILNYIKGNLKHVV
Experimental: as §1, §2, §3

[1] = ε-acetylated lysine substrate, trypsin release of 7-amino-4-methylcoumarin, four parameter fit, read-out: IC50 values HDAC6
[2] = HDAC-like amidohydrolase, ε-acetylated lysine substrate, trypsin release of 7-amino-4-methylcoumarin, four parameter fit, read-out: IC50 values HDAH
[3] = ε-acetylated lysine substrate, trypsin release of 7-amino-4-methylcoumarin, four parameter fit, read-out: IC50 values HDAC1
[4] = ε-acetylated lysine substrate, trypsin release of 7-amino-4-methylcoumarin, four parameter fit, read-out: IC50 values HDAC7
[5] = ε-acetylated lysine substrate, trypsin release of 7-amino-4-methylcoumarin, four parameter fit, read-out: IC50 values HDAC8

Structure (SMILES) | IC50 (HDAC7) [µM] | IC50 (HDAC6; [1]) [µM] | IC50 (HDAH; [2]) [µM] | IC50 (HDAC1) [µM] | IC50 (HDAC1; [3]) [µM] | IC50 (HDAC8) [µM] | IC50 (HDAC7; [4]) [µM] | IC50 (HDAC6) [µM] | IC50 (HDAH) [µM] | IC50 (HDAC8; [5]) [µM]
O=C(NO)C(F)(F)C(F)(F)C(F)(F)C(F)(F)C(F)(F)C(F)(F)C(=O)Nc1ccccc1 [LU210, 2,2,3,3,4,4,5,5,6,6,7,7-Dodecafluorooctanedioic acid hydroxyamide phenyl-amide] | 14.8 | 12.5 | 1.67 | 17.9 |  |  |  |  |  | 
Cc1ccc(NC(=O)C(F)(F)C(F)(F)C(F)(F)C(F)(F)C(F)(F)C(F)(F)C(=O)NO)cc1 [LU222, 2,2,3,3,4,4,5,5,6,6,7,7-Dodecafluorooctanedioic acid hydroxyamide 4-methyl-phenylamide] | 84.8 | > 100 | 0.86 |  | 16.3 | 87.6 |  |  |  | 
O=C(NO)C(F)(F)C(F)(F)C(F)(F)C(F)(F)C(F)(F)C(F)(F)C(=O)Nc1ccc(Cl)cc1 [LU223, 2,2,3,3,4,4,5,5,6,6,7,7-Dodecafluorooctanedioic acid (4-chlorophenyl)amide hydroxyamide] |  |  |  |  | 15.1 |  | 26.8 | 26.3 | 0.72 | 73
CC(=O)Nc1ccc(NC(=O)C(F)(F)C(F)(F)C(F)(F)C(F)(F)C(F)(F)C(F)(F)C(=O)NO)cc1 [LU224, 2,2,3,3,4,4,5,5,6,6,7,7-Dodecafluorooctanedioic acid (4-acetylaminophenyl)-amide hydroxyamide] |  | 10.5 | 3.41 |  | 21.8 |  | 21.5 |  |  | 76.2
N#Cc1ccc(NC(=O)C(F)(F)C(F)(F)C(F)(F)C(F)(F)C(F)(F)C(F)(F)C(=O)NO)cc1 [LU225 A, 2,2,3,3,4,4,5,5,6,6,7,7-Dodecafluorooctanedioic acid (4-cyanophenyl)amide hydroxyamide] |  | > 100 |  |  | 21.8 |  | 53.7 |  | 0.7 | 73.9
O=C(NO)C(F)(F)C(F)(F)C(F)(F)C(F)(F)C(F)(F)C(F)(F)C(=O)Nc1ccc(I)cc1 [LU227, 2,2,3,3,4,4,5,5,6,6,7,7-Dodecafluorooctanedioic acid hydroxyamide (4-iodo-phenyl)amide] |  | 5.13 | 0.91 |  | 16.9 |  | 6.86 |  |  | 75.8
Cc1ccc(NC(=O)C(F)(F)C(F)(F)C(F)(F)C(F)(F)C(F)(F)C(F)(F)C(=O)NO)cc1C [LU228, 2,2,3,3,4,4,5,5,6,6,7,7-Dodecafluorooctanedioic acid (3,4-dimethylphenyl)-amide hydroxyamide] | 5.51 | 7.8 | 0.66 | 10 |  |  |  |  |  | 22.8
O=C(NO)C(F)(F)C(F)(F)C(F)(F)C(F)(F)C(F)(F)C(F)(F)C(=O)Nc1ccc(-c2ccccc2)cc1 [LU229, 2,2,3,3,4,4,5,5,6,6,7,7-Dodecafluorooctanedioic acid biphenyl-4-ylamide hydroxyamide] | 22 | 59.1 | 0.78 |  | 37.9 |  |  |  |  | > 100
CCc1cccc(NC(=O)C(F)(F)C(F)(F)C(F)(F)C(F)(F)C(F)(F)C(F)(F)C(=O)NO)c1 [LU232, 2,2,3,3,4,4,5,5,6,6,7,7-Dodecafluorooctanedioic acid (3-ethylphenyl)amide hydroxyamide] |  |  | 9.18 | 19.9 |  |  | 4.97 | 1.55 |  | 21.3
O=C(NO)C(F)(F)C(F)(F)C(F)(F)C(F)(F)C(F)(F)C(F)(F)C(=O)Nc1ccc2ccc3cccc4ccc1c2c34 [LU234, 2,2,3,3,4,4,5,5,6,6,7,7-Dodecafluorooctanedioic acid hydroxyamide pyren-1-ylamide] |  | 20.2 | 1.48 |  | 28.3 | 77.8 | > 100 |  |  | 
O=C(NO)C(F)(F)C(F)(F)C(F)(F)C(F)(F)C(F)(F)C(F)(F)C(=O)Nc1nc(-c2ccccc2)cs1 [LU235, 2,2,3,3,4,4,5,5,6,6,7,7-Dodecafluorooctanedioic acid hydroxyamide (4-phenylthiazol-2-yl)amide] |  | 6.47 | 5.11 |  | 3.31 |  | 1.77 |  |  | 2.1
